Data: patent US12404269B2, “Aminoquinazolinone and aminoisoquinolinone derivatives and application thereof” (ZHEJIANG UNIVERSITY, priority 2018, dated 2025)
Read-outs that look alike come from different tables or passages of the source.

What was measured:
ZR-75-1 (PTEN loss) = assay: Tumor cell proliferation, CCK8 method, ZR-75-1; type: cell-based; settings: CCK8, ZR-75-1
Method: (§1) The IC50 value was calculated using Graphpad Prism V5.0 software.

PI3Kα = target: T1, PI3Kα (Homo sapiens, UniProt P42336); assay: PI3Kα molecular activity test (ADP-GLO); type: biochemical; settings: for Selectivity (PI3Kδ IC50/PI3KαIC50): PI3Kδ IC50/PI3Kα IC50; for IC50: recombinant protein, 100 μM ATP, 2 hours at room temperature
T1 construct: purchased Carna Bioscience
T1 sequence (P42336 whole entry): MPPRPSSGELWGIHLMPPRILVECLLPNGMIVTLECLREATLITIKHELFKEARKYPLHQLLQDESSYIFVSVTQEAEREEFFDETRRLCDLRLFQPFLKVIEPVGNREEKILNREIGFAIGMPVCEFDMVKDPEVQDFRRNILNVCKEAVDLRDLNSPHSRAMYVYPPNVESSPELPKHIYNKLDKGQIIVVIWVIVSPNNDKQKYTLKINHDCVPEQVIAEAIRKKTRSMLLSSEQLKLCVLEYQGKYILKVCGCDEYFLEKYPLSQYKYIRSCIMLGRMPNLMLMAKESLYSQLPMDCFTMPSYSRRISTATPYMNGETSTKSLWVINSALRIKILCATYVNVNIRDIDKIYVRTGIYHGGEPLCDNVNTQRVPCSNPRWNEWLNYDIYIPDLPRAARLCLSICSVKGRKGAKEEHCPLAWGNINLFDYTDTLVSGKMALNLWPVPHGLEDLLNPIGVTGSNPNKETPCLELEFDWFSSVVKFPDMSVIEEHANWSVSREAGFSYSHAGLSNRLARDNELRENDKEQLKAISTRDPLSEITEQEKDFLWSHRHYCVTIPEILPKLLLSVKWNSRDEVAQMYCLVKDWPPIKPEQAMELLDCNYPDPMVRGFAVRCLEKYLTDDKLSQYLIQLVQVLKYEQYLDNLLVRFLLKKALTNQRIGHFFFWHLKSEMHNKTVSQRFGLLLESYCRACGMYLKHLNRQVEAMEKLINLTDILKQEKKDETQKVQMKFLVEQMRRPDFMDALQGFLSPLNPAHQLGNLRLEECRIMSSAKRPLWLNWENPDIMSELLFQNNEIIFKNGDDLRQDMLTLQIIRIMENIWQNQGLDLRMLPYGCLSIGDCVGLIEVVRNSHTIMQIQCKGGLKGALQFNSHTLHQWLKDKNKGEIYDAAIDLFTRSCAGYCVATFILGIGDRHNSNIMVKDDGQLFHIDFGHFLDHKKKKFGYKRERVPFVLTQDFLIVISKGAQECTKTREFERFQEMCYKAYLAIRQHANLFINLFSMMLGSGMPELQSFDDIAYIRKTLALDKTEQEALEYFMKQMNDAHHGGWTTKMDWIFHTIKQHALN
T1 sequence (P27986 whole entry partner): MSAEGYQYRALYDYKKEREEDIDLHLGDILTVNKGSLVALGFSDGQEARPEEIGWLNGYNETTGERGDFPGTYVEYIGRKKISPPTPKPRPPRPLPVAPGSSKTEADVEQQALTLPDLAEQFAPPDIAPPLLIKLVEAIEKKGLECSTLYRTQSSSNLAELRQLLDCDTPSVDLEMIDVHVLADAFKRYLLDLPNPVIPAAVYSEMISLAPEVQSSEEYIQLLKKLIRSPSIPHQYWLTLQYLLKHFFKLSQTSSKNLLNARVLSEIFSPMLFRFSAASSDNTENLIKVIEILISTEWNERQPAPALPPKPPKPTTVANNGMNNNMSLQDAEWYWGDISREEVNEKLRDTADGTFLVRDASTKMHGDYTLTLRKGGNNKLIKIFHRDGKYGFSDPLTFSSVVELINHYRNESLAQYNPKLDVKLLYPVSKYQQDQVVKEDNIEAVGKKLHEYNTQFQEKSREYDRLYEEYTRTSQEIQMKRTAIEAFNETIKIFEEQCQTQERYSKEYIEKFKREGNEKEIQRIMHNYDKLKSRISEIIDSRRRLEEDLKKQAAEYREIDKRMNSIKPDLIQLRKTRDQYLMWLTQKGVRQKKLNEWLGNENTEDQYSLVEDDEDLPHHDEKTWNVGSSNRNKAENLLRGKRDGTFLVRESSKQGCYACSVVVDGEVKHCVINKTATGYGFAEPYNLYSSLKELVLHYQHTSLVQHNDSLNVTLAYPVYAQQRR
Method: (§2) Instrument: ELISA Reader Envision™ (PerkinElmer, USA)
(§3) Materials: Human recombinant PI3K and PI3Kδ proteins, purchased from Carna Bioscience; ADP-GLO kit, purchased from Promega.
(§4) Take the PI3Kα Molecular Activity Test as an Example to Describe the Text Method of the PI3K Subtypes
(§5) PI3K-α recombinant protein and substrate ATP were diluted with kinase reaction buffer (50 mM Tris-HCl, pH 7.4, 2.1 mM DTT, 0.05% Tween-20, 10 mM MgCl2). […] The specific reaction system was 2% of DMSO, 0.8 ng/μL PI3K-α, and 100 μM ATP, the positive compound control groups and control wells were set, and there were 3 multiple-wells for each concentration of each sample. After incubating for 2 hours at room temperature, ADP-GLO Reagent and Kinase Detection Reagent were added respectively, and then Envision™ was used to detect the […] readings. The activity rate of the samples were calculated by the sample readings, and the calculation formula was: activity rate=(ODcompound−ODcontrol)/(ODDMSO−ODcontro) ×100%.

MCF7 (PIK3CA mut) = assay: Tumor cell proliferation, CCK8 method, MCF7; type: cell-based, human; settings: CCK8, MCF7, read-out: MCF7 (PIK3CA mut) proliferation IC50
Method: as §1

KPL4 (PIK3CA mut) = assay: Tumor cell proliferation, CCK8 method, KPL4; type: cell-based; settings: CCK8, KPL4; read-out: KPL4 (PIK3CA mut) proliferation IC50
Method: as §1

PI3Kδ = target: T2, PI3Kδ (Homo sapiens, UniProt O00329); assay: PI3Kδ molecular activity test (ADP-GLO); type: biochemical; settings: recombinant protein
T2 construct: purchased Carna Bioscience
T2 sequence (O00329 whole entry): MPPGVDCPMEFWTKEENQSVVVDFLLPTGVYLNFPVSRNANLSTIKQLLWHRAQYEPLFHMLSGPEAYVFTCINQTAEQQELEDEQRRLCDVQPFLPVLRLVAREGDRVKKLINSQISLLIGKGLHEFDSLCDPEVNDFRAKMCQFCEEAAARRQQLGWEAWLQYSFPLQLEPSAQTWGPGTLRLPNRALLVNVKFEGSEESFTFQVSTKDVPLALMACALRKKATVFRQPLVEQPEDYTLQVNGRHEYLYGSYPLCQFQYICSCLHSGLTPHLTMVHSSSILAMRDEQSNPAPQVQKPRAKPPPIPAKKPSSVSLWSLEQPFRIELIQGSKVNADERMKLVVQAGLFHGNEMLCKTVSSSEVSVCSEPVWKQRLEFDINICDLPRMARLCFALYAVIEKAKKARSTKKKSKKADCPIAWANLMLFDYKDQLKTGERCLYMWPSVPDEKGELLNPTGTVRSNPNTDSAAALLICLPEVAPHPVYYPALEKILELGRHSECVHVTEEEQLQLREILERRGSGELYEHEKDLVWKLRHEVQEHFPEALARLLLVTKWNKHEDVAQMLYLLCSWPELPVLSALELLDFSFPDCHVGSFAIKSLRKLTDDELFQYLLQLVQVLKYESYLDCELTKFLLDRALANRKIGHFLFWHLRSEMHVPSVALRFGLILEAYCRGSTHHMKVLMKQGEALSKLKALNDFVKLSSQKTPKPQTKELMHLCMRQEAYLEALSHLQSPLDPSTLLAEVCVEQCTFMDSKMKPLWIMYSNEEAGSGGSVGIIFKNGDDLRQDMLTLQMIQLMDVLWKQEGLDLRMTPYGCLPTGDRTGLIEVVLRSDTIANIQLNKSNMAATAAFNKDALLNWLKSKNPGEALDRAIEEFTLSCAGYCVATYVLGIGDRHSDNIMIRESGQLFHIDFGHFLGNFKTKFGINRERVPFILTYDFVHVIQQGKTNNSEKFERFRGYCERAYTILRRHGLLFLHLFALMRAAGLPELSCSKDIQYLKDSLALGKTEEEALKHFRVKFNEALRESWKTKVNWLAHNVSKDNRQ
T2 sequence (P27986 whole entry partner): as the sequence (P27986 whole entry partner) above
Method: as §2, §3, §4, §5

SW48 (PIK3CA mut) = assay: Tumor cell proliferation, CCK8 method, SW48; type: cell-based; settings: CCK8, SW48, read-out: SW48 (PIK3CA mut) proliferation IC50
Method: as §1

Structure (SMILES)	IC50 (ZR-75-1 (PTEN loss); Homo sapiens) [nM]	Selectivity (PI3Kδ IC50/PI3KαIC50) (PI3Kα)	IC50 (PI3Kα) [nM]	IC50 (MCF7 (PIK3CA mut); Homo sapiens) [nM]	IC50 (KPL4 (PIK3CA mut)) [nM]	IC50 (PI3Kδ) [nM]	IC50 (SW48 (PIK3CA mut); Homo sapiens) [nM]	IC50 (ZR-75-1 (PTEN loss)) [nM]	IC50 (MCF7 (PIK3CA mut)) [nM]	IC50 (SW48 (PIK3CA mut)) [nM]
CCn1c(NC(=O)c2ccc(N)nc2)nc2c(OC)c(OC[C@@H](O)CN3CCOCC3)ccc2c1=O [8b-46, (S)-6-amino-N-(3-ethyl-7-(2-hydroxy-3-morpholinopropoxy)-8-methoxy-4-oxo-3,4-dihydroquinazolin-2-yl) nicotinamide]	200 to 1000	II (“II” represents 5-10 times)	< 20	< 20	20 to 200	200 to 1000	20 to 200	–	–	–
CCn1c(NC(=O)c2ccc(N)nc2)nc2c(OC)c(OC[C@H](O)CN3CCOCC3)ccc2c1=O [8b-47, (R)-6-amino-N-(3-ethyl-7-(2-hydroxy-3-morpholinopropoxy)-8-methoxy-4-oxo-3,4-dihydroquinazolin-2-yl) nicotinamide]	200 to 1000	II (“II” represents 5-10 times)	< 20	< 20	20 to 200	200 to 1000	20 to 200	–	–	–
COc1c(OCCCN2CCOCC2)ccc2c(=O)n(CC(F)F)c(NC(=O)c3cnc(N)nc3)nc12 [8f-1]	200 to 1000	–	–	< 20	20 to 200	–	20 to 200	–	–	–
CCn1c(NC(=O)c2cnc(N)nc2)nc2c(OC(F)F)c(OCCCN3CCOCC3)ccc2c1=O [8g-1]	200 to 1000	–	–	< 20	20 to 200	–	20 to 200	–	–	–
Cn1c(NC(=O)c2cnc(N)nc2)cc2c3c(ccc2c1=O)OCCO3 [14a′-2]	–	II (“II” represents 5-10 times)	< 20	–	–	20 to 200	–	–	–	–
Cn1c(NC(=O)c2cnc(N)nc2)cc2c3c(ccc2c1=O)OCCCCO3 [14a′-4]	–	II (“II” represents 5-10 times)	< 20	–	–	20 to 200	–	–	–	–
Cn1c(NC(=O)c2cnc(N)nc2)cc2c3c(ccc2c1=O)OCCOCCO3 [14a′-5]	–	II (“II” represents 5-10 times)	< 20	–	–	20 to 200	–	–	–	–
Cn1c(NC(=O)c2cnc(N)nc2)cc2c3c(ccc2c1=O)OCCOCCOCCO3 [14a′-6]	–	II (“II” represents 5-10 times)	< 20	–	–	20 to 200	–	–	–	–
Cn1c(NC(=O)c2cnc(N)nc2)cc2c3c(ccc2c1=O)OCCOCCOCCOCCO3 [14a′-7]	–	II (“II” represents 5-10 times)	< 20	–	–	20 to 200	–	–	–	–
CCn1c(NC(=O)c2cnc(N)nc2)cc2c3c(ccc2c1=O)OCCO3 [14b′-2]	–	I (“I” represents <5 times)	< 20	–	–	< 20	–	–	–	–
CCn1c(NC(=O)c2cnc(N)nc2)cc2c3c(ccc2c1=O)OCCCCO3 [14b′-4]	–	I (“I” represents <5 times)	20 to 200	–	–	20 to 200	–	–	–	–
Cc1nc(NC(=O)N2CCC[C@H]2C(N)=O)sc1-c1ccnc(C(C)(C)C(F)(F)F)c1 [Alpelisib, reference compound]	20 to 200	–	–	< 20	20 to 200	–	20 to 200	–	–	–

Further lines, results first:

IC50 (ZR-75-1 (PTEN loss); Homo sapiens) [nM]	Selectivity (PI3Kδ IC50/PI3KαIC50) (PI3Kα)	IC50 (PI3Kα) [nM]	IC50 (MCF7 (PIK3CA mut); Homo sapiens) [nM]	IC50 (KPL4 (PIK3CA mut)) [nM]	IC50 (PI3Kδ) [nM]	IC50 (SW48 (PIK3CA mut); Homo sapiens) [nM]	IC50 (ZR-75-1 (PTEN loss)) [nM]	IC50 (MCF7 (PIK3CA mut)) [nM]	IC50 (SW48 (PIK3CA mut)) [nM]	Structure (SMILES)
20 to 200	II (“II” represents 5-10 times)	< 20	< 20	20 to 200	20 to 200	< 20	–	–	–	CCn1c(NC(=O)c2cnc(N)nc2)nc2c(OC)c(O)ccc2c1=O [7b, 2-amino-N-(3-ethyl-7-hydroxy-8-methoxy-4-oxo-3 ,4-dihydroquinazolin-2-yl) pyrimidine-5-carboxamide]
< 20	III (“III” represents >10 times)	< 20	< 20	< 20	20 to 200	< 20	–	–	–	COc1c(OCCC(N)=O)ccc2c(=O)n(C)c(NC(=O)c3cnc(N)nc3)nc12 [8a-3]
200 to 1000	III (“III” represents >10 times)	< 20	< 20	20 to 200	200 to 1000	20 to 200	–	–	–	CCOC(=O)COc1ccc2c(=O)n(C)c(NC(=O)c3cnc(N)nc3)nc2c1OC [8a-29]
200 to 1000	II (“II” represents 5-10 times)	< 20	< 20	20 to 200	20 to 200	20 to 200	–	–	–	COc1c(OCCNS(C)(=O)=O)ccc2c(=O)n(C)c(NC(=O)c3cnc(N)nc3)nc12 [8a-30, 2-amino-N-(8-methoxy-3-methyl-7-(2-(methylsulfonamido)ethoxy)-4-oxo-3,4-dihydroquinazolin-2-yl) pyrimidine-5-carboxamide]
200 to 1000	II (“II” represents 5-10 times)	< 20	< 20	20 to 200	20 to 200	20 to 200	–	–	–	COc1c(OC[C@@H](O)CN2CCOCC2)ccc2c(=O)n(C)c(NC(=O)c3ccc(N)nc3)nc12 [8a-38, (S)-6-amino-N-(7-(2-hydroxy-3-morpholinopropoxy)-8-methoxy-3-methyl-4-oxo-3,4-dihydroouinazolin-2-yl) nicotinamide]
200 to 1000	II (“II” represents 5-10 times)	< 20	< 20	20 to 200	20 to 200	20 to 200	–	–	–	COc1c(OC[C@H](O)CN2CCOCC2)ccc2c(=O)n(C)c(NC(=O)c3ccc(N)nc3)nc12 [8a-39, (R)-6-amino-N-(7-(2-hydroxy-3-morpholinopropoxy)-8-methoxy-3-methyl-4-oxo-3,4-dihydroquinazolin-2-yl) nicotinamide]
200 to 1000	II (“II” represents 5-10 times)	< 20	< 20	20 to 200	20 to 200	20 to 200	–	–	–	COc1c(OCCNS(C)(=O)=O)ccc2c(=O)n(C)c(NC(=O)c3ccc(N)nc3)nc12 [8a-40, 6-amino-N-(8-methoxy-3-methyl-7-(2-(methylsulfonamido)ethoxy)-4-oxo-3,4-dihydroquinazoline-2-yl) nicotinamide]
20 to 200	III (“III” represents >10 times)	< 20	< 20	20 to 200	20 to 200	20 to 200	–	–	–	CCn1c(NC(=O)c2cnc(N)nc2)nc2c(OC)c(OCC(N)=O)ccc2c1=O [8b-2]
20 to 200	II (“II” represents 5-10 times)	< 20	< 20	< 20	< 20	20 to 200	–	–	–	CCn1c(NC(=O)c2cnc(N)nc2)nc2c(OC)c(OCCS(N)(=O)=O)ccc2c1=O [8b-11]
200 to 1000	II (“II” represents 5-10 times)	< 20	< 20	20 to 200	200 to 1000	20 to 200	–	–	–	CCn1c(NC(=O)c2cnc(N)nc2)nc2c(OC)c(OC[C@@H](O)CN3CCOCC3)ccc2c1=O [8b-27, (S)-2-amino-N-(3-ethyl-7-(2-hydroxy-3-morpholinopropoxy)-8-methoxy-4-oxo-3,4-dihydroquinazolin-2-yl) pyrimidine-5-carboxamide]
200 to 1000	II (“II” represents 5-10 times)	< 20	< 20	20 to 200	200 to 1000	20 to 200	–	–	–	CCn1c(NC(=O)c2cnc(N)nc2)nc2c(OC)c(OC[C@H](O)CN3CCOCC3)ccc2c1=O [8b-28, (R)-2-amino-N-(3-ethyl-7-(2-hydroxy-3-morpholinopropoxy)-8-methoxy-4-oxo-3,4-dihydroquinazolin-2-yl) pyrimidine-5-carboxamide]
200 to 1000	III (“III” represents >10 times)	< 20	< 20	20 to 200	200 to 1000	20 to 200	–	–	–	CCn1c(NC(=O)c2cnc(N)nc2)nc2c(OC)c(OCCNS(C)(=O)=O)ccc2c1=O [8b-29, 2-amino-N-(3-ethyl-8-methoxy-7-(2-(methylsulfonamido)ethoxy)-4-oxo-3,4-dihydroquinazolin-2-yl) pyrimidine-5-carboxamide]
–	II (“II” represents 5-10 times)	< 20	–	20 to 200	200 to 1000	–	200 to 1000	< 20	20 to 200	CCn1c(NC(=O)c2cnc(N)nc2)nc2c(OC)c(OCC(C)NS(C)(=O)=O)ccc2c1=O (stereo not drawn) [8b-30, 2-amino-N-(3-ethyl-8-methoxy-7-(2-(methylsulfonamido)propoxy)-4-oxo-3,4-dihydroquinazolin-2-yl) pyrimidine-5-carboxamide]
